Data from patent US20070185132A1, “Cyclopropyl group substituted oxazolidinone antibiotics and derivatives thereo” (priority 2003, published 2007).
Converted amounts (≈) assume the structure as drawn.

Legend:
Type in all cases: cell-based
[1] = tested on: Staphylococcus aureus Smith; assay: MIC, agar dilution method, S. aureus Smith; settings: Mueller-Hinton agar, 35° C., 24 hours
Description: (§1) The following in vitro results were obtained based on an agar dilution method except for C. pneumoniae. The activity is presented as the minimum inhibitory concentration (MIC).
(§2) S. aureus and M. catarrhalis were tested on Mueller-Hinton agar, using an approximate inoculum of 1×10^4 cfu/spot an incubation temperature of 35° C. for 24 hours. The MIC was defined as the lowest concentration at which no visible bacterial growth was observed.

[2] = tested on: Staphylococcus aureus CR (chloramphenicol resistant); assay: MIC, agar dilution method, S. aureus CR; settings: Mueller-Hinton agar, 35° C., 24 hours
Description: as §1, §2

[3] = tested on: Staphylococcus aureus MR (methicillin resistant); assay: MIC, agar dilution method, S. aureus MR; settings: Mueller-Hinton agar, 35° C., 24 hours
Description: as §1, §2

[4] = tested on: Streptococcus pneumoniae IID553; assay: MIC, agar dilution method, S. pneumoniae IID553; settings: Mueller-Hinton agar with 5% defibrinated horse blood, 35° C., 5% CO2, 24 hours
Description: as §1
as §2, with “Streptococci” for “S. aureus”, “enterococci” for “M. catarrhalis”, “agar supplemented with 5% defibrinated horse blood,” for “agar,”, “C. in an atmosphere of 5% CO2” for “C.”

[5] = tested on: Streptococcus pneumoniae PRQR (penicillin resistant, quinolone resistant); assay: MIC, agar dilution method, S. pneumoniae PRQR; settings: Mueller-Hinton agar with 5% defibrinated horse blood, 35° C., 5% CO2, 24 hours
Description: as §1
as §2, with “Streptococci” for “S. aureus”, “enterococci” for “M. catarrhalis”, “agar supplemented with 5% defibrinated horse blood,” for “agar,”, “C. in an atmosphere of 5% CO2” for “C.”

[6] = tested on: Streptococcus pyogenes IID692; assay: MIC, agar dilution method, S. pyogenes IID692; settings: Mueller-Hinton agar with 5% defibrinated horse blood, 35° C., 5% CO2, 24 hours
Description: as §1
as §2, with “Streptococci” for “S. aureus”, “enterococci” for “M. catarrhalis”, “agar supplemented with 5% defibrinated horse blood,” for “agar,”, “C. in an atmosphere of 5% CO2” for “C.”

[7] = tested on: Enterococcus faecium VRQR (vancomycin resistant, quinolone resistant); assay: MIC, agar dilution method, E. faecium VRQR; settings: Mueller-Hinton agar with 5% defibrinated horse blood, 35° C., 5% CO2, 24 hours
Description: as §1
as §2, with “Streptococci” for “S. aureus”, “enterococci” for “M. catarrhalis”, “agar supplemented with 5% defibrinated horse blood,” for “agar,”, “C. in an atmosphere of 5% CO2” for “C.”

[8] = tested on: Moraxella catarrhalis ATCC25238; assay: MIC, agar dilution method, M. catarrhalis ATCC25238; settings: Mueller-Hinton agar, 35° C., 24 hours
Description: as §1, §2

| MIC [1] [µg/mL] | MIC [2] [µg/mL] | MIC [3] [µg/mL] | MIC [4] [µg/mL] | MIC [5] [µg/mL] | MIC [6] [µg/mL] | MIC [7] [µg/mL] | MIC [8] [µg/mL] | Structure (SMILES) |
| --- | --- | --- | --- | --- | --- | --- | --- | --- |
| 0.125 (≈ 0.287 µM) | 1 (≈ 2.3 µM) | 0.125 (≈ 0.287 µM) | 0.25 (≈ 0.574 µM) | 0.125 (≈ 0.287 µM) | 0.125 (≈ 0.287 µM) | 0.5 (≈ 1.15 µM) | 2 (≈ 4.59 µM) | N[C@@H]1[C@H]2CN(c3ccc(-c4ccc(N5C[C@H](Cn6ccnn6)OC5=O)cc4F)cn3)C[C@@H]12 [Example 32, 1-[5(R)-3-[4-[2-[(1α,5α,6α)-6-amino-3-azabicyclo[3.1.0]hexan-3-yl]pyridin-5-yl]-3-fluorophenyl]-2-oxooxazolidin-5-ylmethyl]-1,2,3-triazole] |
| 1 (≈ 2.96 µM) | 16 (≈ 47.4 µM) | 1 (≈ 2.96 µM) | 2 (≈ 5.93 µM) | 1 (≈ 2.96 µM) | 1 (≈ 2.96 µM) | 2 (≈ 5.93 µM) | 4 (≈ 11.9 µM) | CC(=O)NC[C@H]1CN(c2ccc(N3CCOCC3)c(F)c2)C(=O)O1 [Linezolid, reference compound] |

Second part, the compound before the results:

| Structure (SMILES) | MIC [1] [µg/mL] | MIC [2] [µg/mL] | MIC [3] [µg/mL] | MIC [4] [µg/mL] | MIC [5] [µg/mL] | MIC [6] [µg/mL] | MIC [7] [µg/mL] | MIC [8] [µg/mL] |
| --- | --- | --- | --- | --- | --- | --- | --- | --- |
| CC(=O)NC[C@H]1CN(c2ccc(-c3ccc(C4(C#N)CC4)nc3)c(F)c2)C(=O)O1 [Example 3, N-[5(S)-3-[4-[2-(1-Cyanocyclopropan-1-yl)pyridin-5-yl]-3-fluorophenyl]-2-oxooxazolidin-5-ylmethyl]acetamide] | 0.06 (≈ 0.152 µM) | 0.5 (≈ 1.27 µM) | 0.125 (≈ 0.317 µM) | 0.125 (≈ 0.317 µM) | 0.125 (≈ 0.317 µM) | 0.125 (≈ 0.317 µM) | 0.125 (≈ 0.317 µM) | 0.5 (≈ 1.27 µM) |
| CC(=O)NC[C@H]1CN(c2ccc(-c3ccc(C4(N)CC4)nc3)cc2)C(=O)O1 [Example 5, N-[5(S)-3-[4-[2-(1-Aminocyclopropan-1-yl)pyridin-5-yl]phenyl]-2-oxooxazolidin-5-ylmethyl]acetamide] | 0.25 (≈ 0.682 µM) | 2 (≈ 5.46 µM) | 0.5 (≈ 1.36 µM) | 0.5 (≈ 1.36 µM) | 0.25 (≈ 0.682 µM) | 0.25 (≈ 0.682 µM) | 0.5 (≈ 1.36 µM) | 2 (≈ 5.46 µM) |
| N#CC1(c2ccc(-c3ccc(N4C[C@H](Cn5ccnn5)OC4=O)cc3)cn2)CC1 [Example 18, 1-[5(R)-3-[4-[2-(1-Cyanocyclopropan-1-yl)pyridin-5-yl]phenyl]-2-oxooxazolidin-5-ylmethyl]-1,2,3-triazole] | 0.06 (≈ 0.155 µM) | 1 (≈ 2.59 µM) | 0.06 (≈ 0.155 µM) | 0.125 (≈ 0.323 µM) | 0.125 (≈ 0.323 µM) | 0.06 (≈ 0.155 µM) | 0.125 (≈ 0.323 µM) | 0.5 (≈ 1.29 µM) |
